In patent publication US20230295200A1 (REGENTS OF THE UNIVERSITY OF MICHIGAN, priority 2022, published 2023) one finds Ki data, which are given here for 18 molecules.

Bounds are passed on as bounds.

The target in the test is T1, STAT6 protein (Homo sapiens, UniProt P42226).
T1 sequence (P42226 1-847): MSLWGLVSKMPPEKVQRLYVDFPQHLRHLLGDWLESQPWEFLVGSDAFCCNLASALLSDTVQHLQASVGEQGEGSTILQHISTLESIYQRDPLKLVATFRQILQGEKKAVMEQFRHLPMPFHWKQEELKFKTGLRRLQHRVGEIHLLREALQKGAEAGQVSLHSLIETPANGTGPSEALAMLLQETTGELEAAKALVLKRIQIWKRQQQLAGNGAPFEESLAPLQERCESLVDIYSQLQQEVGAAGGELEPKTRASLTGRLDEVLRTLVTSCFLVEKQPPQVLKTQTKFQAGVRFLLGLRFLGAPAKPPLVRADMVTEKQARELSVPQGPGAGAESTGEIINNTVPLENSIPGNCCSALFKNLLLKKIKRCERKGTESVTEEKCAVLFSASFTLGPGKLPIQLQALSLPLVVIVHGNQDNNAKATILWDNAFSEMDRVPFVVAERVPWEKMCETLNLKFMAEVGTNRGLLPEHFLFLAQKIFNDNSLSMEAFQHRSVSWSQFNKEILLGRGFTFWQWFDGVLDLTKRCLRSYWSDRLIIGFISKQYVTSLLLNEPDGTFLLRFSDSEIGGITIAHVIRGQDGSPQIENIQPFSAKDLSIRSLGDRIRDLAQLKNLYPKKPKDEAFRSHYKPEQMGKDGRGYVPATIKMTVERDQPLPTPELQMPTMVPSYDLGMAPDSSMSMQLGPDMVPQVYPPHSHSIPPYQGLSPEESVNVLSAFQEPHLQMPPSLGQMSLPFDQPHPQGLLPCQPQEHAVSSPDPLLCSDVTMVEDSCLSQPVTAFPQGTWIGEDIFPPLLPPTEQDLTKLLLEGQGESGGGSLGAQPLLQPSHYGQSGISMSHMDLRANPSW
Put plainly: Fluorescence polarization (FP) binding assay, STAT6. The following applies: FP competition, 5 nM fluorescein-labeled tracer, 200 nM protein, PBS pH7.4; read-out: Binding STAT6. The essentials: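 Competitive FP read-out with 5 nM fluorescein-labeled tracer and 200 nM STAT5 or STAT6 protein in PBS pH 7.4 containing 0.01% BGG, 0.01% Tween-20 and 2 mM DTT. Plates were shaken 15 min, then equilibrated 1 h at room temperature; inhibition constants came from nonlinear curve fitting.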
For orientation: In fluorescence polarisation assays a small probe gives low polarisation when free and higher when bound to something large.
For `CC(=O)N1CC[C@H]2CC[C@@H](C(=O)N[C@H](C)c3ccccc3)N2C(=O)[C@@H](NC(=O)c2cc3cc(C(F)(F)P(=O)(O)O)ccc3[nH]2)C1` [Compound 338, ((2-(((5S,8S,10aR)-3-acetyl-6-oxo-8-(((R)-1-phenylethyl)carbamoyl)decahydropyrrolo[1,2-a][1,5]diazocin-5-yl)carbamoyl)-1H-indol-5-yl)difluoromethyl)phosphonic acid], the Ki is greater than 10 µM.
Turning to `CC(=O)N1CC[C@H]2CC[C@@H](C(=O)NC(C)(C)c3ccccc3)N2C(=O)[C@@H](NC(=O)c2cc3cc(C(F)(F)P(=O)(O)O)ccc3[nH]2)C1` [Compound 339, ((2-(((5S,8S,10aR)-3-acetyl-6-oxo-8-((2-phenylpropan-2-yl)carbamoyl)decahydropyrrolo[1,2-a][1,5]diazocin-5-yl)carbamoyl)-1H-indol-5-yl)difluoromethyl)phosphonic acid], the Ki is greater than 10 µM.
On to `CC(=O)N1CC[C@H]2CC[C@@H](C(=O)NC3(c4ccccc4)CC3)N2C(=O)[C@@H](NC(=O)c2cc3cc(C(F)(F)P(=O)(O)O)ccc3[nH]2)C1` [Compound 340, ((2-(((5S,8S,10aR)-3-acetyl-6-oxo-8-((1-phenylcyclopropyl)carbamoyl)deca hydropyrrolo[1,2-a][1,5]diazocin-5-yl)carbamoyl)-1H-indol-5-yl)difluoromethyl)phosphonic acid], for which the Ki was greater than 10 µM.
In the case of `CC(=O)N1CC[C@H]2CC[C@@H](C(=O)NC3(c4ccccc4)CCOCC3)N2C(=O)[C@@H](NC(=O)c2cc3cc(C(F)(F)P(=O)(O)O)ccc3[nH]2)C1` [Compound 341, ((2-(((5S,8S,10aR)-3-acetyl-6-oxo-8-((4-phenyltetrahydro-2H-pyran-4-yl)carbamoyl)decahydropyrrolo[1,2-a][1,5]diazocin-5-yl)carbamoyl)-1H-indol-5-yl)difluoromethyl)phosphonic acid], the Ki was 1 to 10 µM.
For `CC(=O)N1CC[C@H]2CC[C@@H](C(=O)N(Cc3ccccc3)C3CCCCC3)N2C(=O)[C@@H](NC(=O)c2cc3cc(C(F)(F)P(=O)(O)O)ccc3[nH]2)C1` [Compound 342, ((2-(((5S,8S,10aR)-3-acetyl-8-(benzyl(cyclohexyl)carbamoyl)-6-oxodecahydropyrrolo[1,2-a][1,5]diazocin-5-yl)carbamoyl)-1H-indol-5-yl)difluoromethyl)phosphonic acid] the value was 1 to 10 µM; for `CC(=O)N1CC[C@H]2CC[C@@H](C(=O)N3CCc4c(F)cccc4C3)N2C(=O)[C@@H](NC(=O)c2cc3cc(C(F)(F)P(=O)(O)O)ccc3[nH]2)C1` [Compound 343, ((2-(((5S,8S,10aR)-3-acetyl-8-(5-fluoro-1,2,3,4-tetrahydroisoquinoline-2-carbonyl)-6-oxodecahydropyrrolo[1,2-a][1,5]diazocin-5-yl)carbamoyl)-1H-indol-5-yl)difluoromethyl)phosphonic acid], 1 to 10 µM.
As for `CC(=O)N1CC[C@H]2CC[C@@H](C(=O)N3CCc4cc(F)ccc4C3)N2C(=O)[C@@H](NC(=O)c2cc3cc(C(F)(F)P(=O)(O)O)ccc3[nH]2)C1` [Compound 344, ((2-(((5S,8,10aR)-3-acetyl-8-(6-fluoro-1,2,3,4-tetrahydroisoquinoline-2-carbonyl)-6-oxodecahydropyrrolo[1,2-a][1,5]diazocin-5-yl)carbamoyl)-1H-indol-5-yl)difluoromethyl)phosphonic acid], the Ki was greater than 10 µM.
For `CC(=O)N1CC[C@H]2CC[C@@H](C(=O)N3CCc4ccc(F)cc4C3)N2C(=O)[C@@H](NC(=O)c2cc3cc(C(F)(F)P(=O)(O)O)ccc3[nH]2)C1` [Compound 355, ((2-(((5S,8S,10aR)-3-acetyl-8-(7-fluoro-1,2,3,4-tetrahydroisoquinoline-2-carbonyl)-6-oxodecahydropyrrolo[1,2-a][1,5]diazocin-5-yl)carbamoyl)-1H-indol-5-yl)difluoromethyl)phosphonic acid] the value was greater than 10 µM.
In the case of `CC(=O)N1CC[C@H]2CC[C@@H](C(=O)N3CCc4cccc(F)c4C3)N2C(=O)[C@@H](NC(=O)c2cc3cc(C(F)(F)P(=O)(O)O)ccc3[nH]2)C1` [Compound 356, ((2-(((5S,8S,10aR)-3-acetyl-8-(8-fluoro-1,2,3,4-tetrahydroisoquinoline-2-carbonyl)-6-oxodecahydropyrrolo[1,2-a][1,5]diazocin-5-yl)carbamoyl)-1H-indol-5-yl)difluoromethyl)phosphonic acid] it was greater than 10 µM; in that of `CC(=O)N1CC[C@H]2CC[C@@H](C(=O)N3CCc4ccc(C)cc4C3)N2C(=O)[C@@H](NC(=O)c2cc3cc(C(F)(F)P(=O)(O)O)ccc3[nH]2)C1` [Compound 357, ((2-(((5S,8S,10aR)-3-acetyl-8-(7-methyl-1,2,3,4-tetrahydroisoquinoline-2-carbonyl)-6-oxodecahydropyrrolo[1,2-a][1,5]diazocin-5-yl)carbamoyl)-1H-indol-5-yl)difluoromethyl)phosphonic acid], greater than 10 µM.
In the case of `CC(=O)N1CC[C@H]2CC[C@@H](C(=O)N3CCc4ccc(C(F)(F)F)cc4C3)N2C(=O)[C@@H](NC(=O)c2cc3cc(C(F)(F)P(=O)(O)O)ccc3[nH]2)C1` [Compound 358, ((2-(((5S,8S,10aR)-3-acetyl-6-oxo-8-(7-(trifluoromethyl)-1,2,3,4-tetrahydroisoquinoline-2-carbonyl)decahydropyrrolo[1,2-a][1,5]diazocin-5-yl)carbamoyl)-1H-indol-5-yl)difluoromethyl)phosphonic acid] it was greater than 10 µM.
Regarding `CC(=O)N1CC[C@H]2CC[C@@H](C(=O)N3Cc4ccccc4C3)N2C(=O)[C@@H](NC(=O)c2cc3cc(C(F)(F)P(=O)(O)O)ccc3[nH]2)C1` [Compound 359, ((2-(((5S,8S,10aR)-3-acetyl-8-(isoindoline-2-carbonyl)-6-oxodecahydropyrrolo[1,2-a][1,5]diazocin-5-yl)carbamoyl)-1H-indol-5-yl)difluoromethyl)phosphonic acid], the Ki lay in the range of 0.1 to 1 µM.
As to `CC(=O)N1CC[C@H]2CC[C@@H](C(=O)N(C)c3ccccc3)N2C(=O)[C@@H](NC(=O)c2cc3cc(C(F)(F)P(=O)(O)O)ccc3[nH]2)C1` [Compound 360, ((2-(((5S,8S,10aR)-3-acetyl-8-(methyl(phenyl)carbamoyl)-6-oxodecahydropyrrolo[1,2-a][1,5]diazocin-5-yl)carbamoyl)-1H-indol-5-yl)difluoromethyl)phosphonic acid], the Ki is greater than 10 µM.
`CC(=O)N1CC[C@H]2CC[C@@H](C(=O)Nc3ccccc3)N2C(=O)[C@@H](NC(=O)c2cc3cc(C(F)(F)P(=O)(O)O)ccc3[nH]2)C1` [Compound 361, ((2-(((5S,8S,10aR)-3-acetyl-6-oxo-8-(phenylcarbamoyl)decahydropyrrolo [1,2-a][1,5]diazocin-5-yl)carbamoyl)-1H-indol-5-yl)difluoromethyl)phosphonic acid]: the Ki was greater than 10 µM.
In the case of `CC(=O)N1CC[C@H]2CC[C@@H](C(=O)N(c3ccccc3)c3ccccc3)N2C(=O)[C@@H](NC(=O)c2cc3cc(C(F)(F)P(=O)(O)O)ccc3[nH]2)C1` [Compound 362, ((2-(((5S,8S,10aR)-3-acetyl-8-(diphenylcarbamoyl)-6-oxodecahydropyrrolo[1,2-a][1,5]diazocin-5-yl)carbamoyl)-1H-indol-5-yl)difluoromethyl)phosphonic acid] it was 1 to 10 µM; in that of `O=C(N[C@H]1CCC[C@H]2CC[C@@H](C(=O)N3CCc4ccccc4C3)N2C1=O)c1cc2cc(C(F)(F)P(=O)(O)O)ccc2[nH]1` [Compound 363, (difluoro(2-(((3S,6S,9aS)-5-oxo-3-(1,2,3,4-tetrahydroisoquinoline-2-carbonyl)octahydro-1H-pyrrolo[1,2-a]azepin-6-yl)carbamoyl)-1H-indol-5-yl)methyl)phosphonic acid], greater than 10 µM.
In the case of `CC(C)C(=O)N1CC[C@H]2CC[C@@H](C(=O)N3CCc4ccccc4C3)N2C(=O)[C@@H](NC(=O)c2cc3cc(C(F)(F)P(=O)(O)O)ccc3[nH]2)C1` [Compound 364, (difluoro(2-(((5S,8S,10aR)-3-isobutyryl-6-oxo-8-(1,2,3,4-tetrahydroisoquinoline-2-carbonyl)decahydropyrrolo[1,2-a][1,5]diazocin-5-yl)carbamoyl)-1H-indol-5-yl)methyl)phosphonic acid] it was greater than 10 µM; in that of `CN1CCC(C(=O)N2CC[C@H]3CC[C@@H](C(=O)N4CCc5ccccc5C4)N3C(=O)[C@@H](NC(=O)c3cc4cc(C(F)(F)P(=O)(O)O)ccc4[nH]3)C2)CC1` [Compound 365, (difluoro(2-(((5S,8S,10aR)-3-(1-methylpiperidine-4-carbonyl)-6-oxo-8-(1,2,3,4-tetrahydroisoquinoline-2-carbonyl)decahydropyrrolo[1,2-a][1,5]diazocin-5-yl)carbamoyl)-1H-indol-5-yl)methyl)phosphonic acid], greater than 10 µM.
